Results as given in patent US7829591B2, “Flavanone compound and uses thereof” (Pokka Corporation, priority 2003, dated 2010).

Experiments:
[1] = tested on: breast cancer cells (MCF-7); assay: Breast cancer cell proliferation-inhibition test; assay type: cell-based; details: for Relative Value of Living Cells: 0.1 nM estradiol, Control 1 at 0 day = 1
Description: When breast cancer cells (MCF-7) are cultured, if estradiol (or 17β-estradiol) having a cell-proliferation accelerating action, is added thereto, the proliferation of breast cancer cells can be simply promoted in a short period. This phenomenon was utilized so as to examine the effect of each of Compounds 1 to 4 and the like on the proliferation inhibition of breast cancer cells. That is, first of all, each of Compounds 1 to 4 was diluted with dimethyl sulfoxide to prepare a sample solution. Thereafter, 2×10^3 of MCF-7 were inoculated in each well of a 96-well plate, and estradiol and the sample solution were added thereto after 4 hours. Estradiol was added to each compartment so that the final concentration of estradiol can be 0.1 nM, and the final concentration of the sample solution can be 0.2 μM, 2 μM, or 20 μM. After incubation for a predetermined period of time (three or five days), each of the media was replaced with a new medium, and an enzyme solution (Cell counting Kit-8: Wako) was added to the new medium in an amount of 10% of the new medium. After maintained the medium in an incubator at a temperature of 37° C. for two hours, the absorbance of the medium was determined at a wavelength of 450 nm (a reference wave length of 630 nm) by means of a spectrophotometer so as to quantify the number of living cells in each compartment.
As for the compartment whose incubation period is predetermined to be five days, on the third day of the incubation, the medium was replaced with a new medium, and thereafter, estradiol and a sample solution were added to the new medium, and the incubation was continued till fifth day. As for the compartment whose incubation period is predetermined to be 0 day, at four hours after the cells were inoculated, an enzyme solution was added to the medium. The medium was maintained in an incubator at a temperature of 37° C. for two hours, followed by determining the absorbance.
Instead of Compounds 1 to 4, eriodictyol was used to determine the absorbance according to a similar procedure to the above-mentioned one, and thus the number of living cells in each compartment was quantified. Furthermore, Control 1 to which neither estradiol nor a sample had been added was used to determine the absorbance according to a similar procedure to the above-mentioned one, and thus the number of living cells in each compartment was quantified, while Control 2 to which no sample had been added was used to determine the absorbance according to a similar procedure to the above-mentioned one, and thus the number of living cells in each compartment was quantified.
When it is assumed that the number of living cells of Control 1 as quantified after a zero-day incubation period is 1, the relative value of living cells as quantified in each of the runs mentioned above is shown in Table 2. Incidentally, each of values shown in Table 2 is the average value and standard deviation of values obtained from eight wells.

Bacillus cereus (B. ce) = assay: Antimicrobial activity test with Compounds 1 to 4; assay type: cell-based; details: for effect on growth and development of spore forming bacteria, B. ce (in words): 5-50 ppm
Description: (§1) That is, first of all, each of Compounds 1 to 4 was dissolved in 70% ethanol, and thereafter, standard agar media were prepared wherein the concentration of each of Compounds 1 to 4 was adjusted to be 0 ppm, 5 ppm, 10 ppm, 15 ppm, 20 ppm, or 50 ppm. Subsequently, these standard agar media were subjected to autoclave sterilization so as to prepare evaluation media, and each of the biological indicators was inoculated in each of these evaluation media. After the incubation of each of the bacteria, the number of the bacteria per a petri dish (CFU/petri dish) was determined.

[2] = tested on: Salmonella enteritidis (S. en; NBRC3313); assay: Antimicrobial activity test with Compounds 1 to 4; assay type: cell-based; details: for effect on growth and development of S. en (in words): 5-50 ppm
Description: as §1

E. coli = assay: Antimicrobial activity test with Compounds 1 to 4; assay type: cell-based; details: for effect on growth and development of E. coli (in words): 5-50 ppm
Description: as §1

[3] = tested on: Staphylococcus aureus (Sta.); assay: Antimicrobial activity test with Compounds 1 to 4; assay type: cell-based; details: for effect on growth and development of Gram-positive bacteria, Sta. (in words): 5-50 ppm
Description: as §1

[4] = DPPH radical scavenging activity test; assay type: biochemical; details: 25 μM sample solution in ethanol, 1 h in dark, absorbance 517 nm; average ± SD of three runs
Description: DPPH (α,α-diphenyl-β-picrylhydradil) is a purple stable radical having a maximum absorption at 517 nm, which is converted into colorless hydrazine by gaining hydrogen. This color reaction was utilized so as to determine the radical scavenging activity of each of Compounds 1 to 4 and the like. That is, each of Compounds 1 to 4 was dissolved in ethanol to prepare 3 ml of a sample solution having a concentration of 25 μM. Thereafter, to each of the resultant sample solutions, 0.75 ml of a 0.5 mM DPPH solution (whose solvent was ethanol) was added and stirred, and reacted in a dark place for one hour, followed by the determination of an absorbance at 517 nm. Furthermore, in place of Compounds 1 to 4, BHT (butylated hydroxytoluene), α-tocopherol or eriodictyol was used so as to determine an absorbance according to a similar procedure to the above. Besides, instead of the above sample solutions, ethanol was used as a control so as to determine an absorbance according to a similar procedure to the above. Then the radical scavenging activity (%) of each of the materials was calculated using the following calculation formula 1. Incidentally, each of values shown in Table 1 is the average value and standard deviation of values obtained from three runs. (Radical Scavenging Activity)=[{(Absorbance of Control)−(Absorbance of Sample Solution)}/(Absorbance of Control)]×100 Calculation Formula 1

[5] = 0.2 μM sample, after 3-days incubation
[6] = 0.2 μM sample, after 5-days incubation
[7] = 0.2 μM sample, on 0-day incubation, mean ± SD of eight wells
[8] = 2 μM sample, after 3-days incubation
[9] = 2 μM sample, after 5-days incubation
[10] = 2 μM sample, on 0-day incubation
[11] = 20 μM sample, after 3-days incubation
[12] = 20 μM sample, after 5-days incubation
[13] = 20 μM sample, on 0-day incubation
[14] = 5 ppm in standard agar medium, 0 ppm: 13 (Table 3), 183 (Table 4)
[15] = 5 ppm in standard agar medium, 0 ppm: >3000 (Table 3), 221 (Table 4)
[16] = 5 ppm in standard agar medium, 0 ppm: >3000 (Table 3), 5 (Table 4)
[17] = 5 ppm in standard agar medium, 0 ppm: 470 (Table 3), 202 (Table 4)

CC(C)=CCC/C(C)=C/Cc1c([C@@H]2CC(=O)c3c(O)cc(O)cc3O2)ccc(O)c1O [Compound 1, 5,7,3′,4′-tetrahydroxy-2′-C-geranylflavanone]
Relative Value of Living Cells [1, 5]: 2.86 ± 0.14 | Relative Value of Living Cells [1, 6]: 7.26 ± 0.48 | Relative Value of Living Cells [1, 7]: 0.98 ± 0.04 | Relative Value of Living Cells [1, 8]: 2.58 ± 0.11 | Relative Value of Living Cells [1, 9]: 6.01 ± 0.25 | Relative Value of Living Cells [1, 10]: 0.99 ± 0.05 | Relative Value of Living Cells [1, 11]: 2.22 ± 0.19 | Relative Value of Living Cells [1, 12]: 4.17 ± 0.50 | Relative Value of Living Cells [1, 13]: 1.01 ± 0.05 | effect on growth and development of spore forming bacteria, B. ce (in words) (Bacillus cereus (B. ce)): more strongly the growth and development of each of Gram-5 positive bacteria and spore forming bacteria is inhibited | Number of Bacteria, B. ce (Bacillus cereus (B. ce); [14]): 12 CFU/petri dish | Number of Bacteria, B. ce (Bacillus cereus (B. ce); 10 ppm in standard agar medium): 0 CFU/petri dish | Number of Bacteria, B. ce (Bacillus cereus (B. ce); 15 ppm in standard agar medium): 0 CFU/petri dish | Number of Bacteria, B. ce (Bacillus cereus (B. ce); 20 ppm in standard agar medium): 0 CFU/petri dish | Number of Bacteria, B. ce (Bacillus cereus (B. ce); 50 ppm in standard agar medium): 0 CFU/petri dish | effect on growth and development of S. en (in words) [2]: little effect upon the growth and development | Number of Bacteria, S. en [2, 15]: >3000 CFU/petri dish | Number of Bacteria, S. en ([2]; 10 ppm in standard agar medium): >3000 CFU/petri dish | Number of Bacteria, S. en ([2]; 15 ppm in standard agar medium): >3000 CFU/petri dish | Number of Bacteria, S. en ([2]; 20 ppm in standard agar medium): >3000 CFU/petri dish | Number of Bacteria, S. en ([2]; 50 ppm in standard agar medium): >3000 CFU/petri dish | effect on growth and development of E. coli (in words) (E. coli): little effect upon the growth and development | Number of Bacteria, E. coli (E. coli; [16]): >3000 CFU/petri dish | Number of Bacteria, E. coli (E. coli; 10 ppm in standard agar medium): >3000 CFU/petri dish | Number of Bacteria, E. coli (E. coli; 15 ppm in standard agar medium): >3000 CFU/petri dish | Number of Bacteria, E. coli (E. coli; 20 ppm in standard agar medium): >3000 CFU/petri dish | Number of Bacteria, E. coli (E. coli; 50 ppm in standard agar medium): >3000 CFU/petri dish | effect on growth and development of Gram-positive bacteria, Sta. (in words) [3]: more strongly the growth and development of each of Gram-5 positive bacteria and spore forming bacteria is inhibited | Number of Bacteria, Sta. [3, 17]: 344 CFU/petri dish | Number of Bacteria, Sta. ([3]; 10 ppm in standard agar medium): 36 CFU/petri dish | Number of Bacteria, Sta. ([3]; 15 ppm in standard agar medium): 0 CFU/petri dish | Number of Bacteria, Sta. ([3]; 20 ppm in standard agar medium): 0 CFU/petri dish | Number of Bacteria, Sta. ([3]; 50 ppm in standard agar medium): 0 CFU/petri dish | Radical Scavenging Activity (%) from DPPH Radical Scavenging Activity Test [4]: 55.35 ± 0.43%

CC(C)=CCC/C(C)=C/Cc1c([C@@H]2CC(=O)c3c(cc(O)c(CC=C(C)C)c3O)O2)ccc(O)c1O [Compound 4, 5,7,3′,4′-tetrahydroxy-6-(3′″,3′″-dimethylallyl)-2′-C-geranylflavanone]
Relative Value of Living Cells [1, 5]: 2.97 ± 0.27 | Relative Value of Living Cells [1, 6]: 6.30 ± 0.54 | Relative Value of Living Cells [1, 7]: 0.99 ± 0.04 | Relative Value of Living Cells [1, 8]: 3.03 ± 0.30 | Relative Value of Living Cells [1, 9]: 6.41 ± 0.53 | Relative Value of Living Cells [1, 10]: 1.00 ± 0.07 | Relative Value of Living Cells [1, 11]: 1.27 ± 0.20 | Relative Value of Living Cells [1, 12]: 1.01 ± 0.12 | Relative Value of Living Cells [1, 13]: 0.98 ± 0.04 | inhibiting effect on the proliferation of breast cancer cells (in words) ([1]; 20 μM, compared with Control 1): cytotoxic effect upon breast cancer cells | effect on growth and development of spore forming bacteria, B. ce (in words) (Bacillus cereus (B. ce)): high antimicrobial activity | Number of Bacteria, B. ce (Bacillus cereus (B. ce); [14]): 16 CFU/petri dish | Number of Bacteria, B. ce (Bacillus cereus (B. ce); 10 ppm in standard agar medium): 0 CFU/petri dish | Number of Bacteria, B. ce (Bacillus cereus (B. ce); 15 ppm in standard agar medium): 0 CFU/petri dish | Number of Bacteria, B. ce (Bacillus cereus (B. ce); 20 ppm in standard agar medium): 0 CFU/petri dish | Number of Bacteria, B. ce (Bacillus cereus (B. ce); 50 ppm in standard agar medium): 0 CFU/petri dish | effect on growth and development of S. en (in words) [2]: antimicrobial activity | Number of Bacteria, S. en [2, 15]: 249 CFU/petri dish | Number of Bacteria, S. en ([2]; 10 ppm in standard agar medium): 199 CFU/petri dish | Number of Bacteria, S. en ([2]; 15 ppm in standard agar medium): 225 CFU/petri dish | Number of Bacteria, S. en ([2]; 20 ppm in standard agar medium): 132 CFU/petri dish | Number of Bacteria, S. en ([2]; 50 ppm in standard agar medium): 65 CFU/petri dish | effect on growth and development of E. coli (in words) (E. coli): high antimicrobial activity | Number of Bacteria, E. coli (E. coli; [16]): 6 CFU/petri dish | Number of Bacteria, E. coli (E. coli; 10 ppm in standard agar medium): 6 CFU/petri dish | Number of Bacteria, E. coli (E. coli; 15 ppm in standard agar medium): 9 CFU/petri dish | Number of Bacteria, E. coli (E. coli; 20 ppm in standard agar medium): 6 CFU/petri dish | Number of Bacteria, E. coli (E. coli; 50 ppm in standard agar medium): 0 CFU/petri dish | effect on growth and development of Gram-positive bacteria, Sta. (in words) [3]: high antimicrobial activity | Number of Bacteria, Sta. [3, 17]: 26 CFU/petri dish | Number of Bacteria, Sta. ([3]; 10 ppm in standard agar medium): 7 CFU/petri dish | Number of Bacteria, Sta. ([3]; 15 ppm in standard agar medium): 10 CFU/petri dish | Number of Bacteria, Sta. ([3]; 20 ppm in standard agar medium): 1 CFU/petri dish | Number of Bacteria, Sta. ([3]; 50 ppm in standard agar medium): 0 CFU/petri dish | Radical Scavenging Activity (%) from DPPH Radical Scavenging Activity Test [4]: 50.79 ± 0.08%
